The record followed here is the supplement of paper PMC10307832.

What all share (assay): relative viability (nuclei count vs DMSO), 5 days (fraction); higher = more cells survive
Compound in the experiment “Ispinesib + Navitoclax”: Cc1ccc(C(=O)N(CCCN)[C@@H](c2nc3cc(Cl)ccc3c(=O)n2Cc2ccccc2)C(C)C)cc1 [Ispinesib] + CC1(C)CCC(c2ccc(Cl)cc2)=C(CN2CCN(c3ccc(C(=O)NS(=O)(=O)c4ccc(N[C@H](CCN5CCOCC5)CSc5ccccc5)c(S(=O)(=O)C(F)(F)F)c4)cc3)CC2)C1 [Navitoclax] (partner 0.5 µM)
A digest of the protocol:
(§1)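 Each reported value is a median over duplicate plates. It expresses relative viability: treated-well nuclei count divided by vehicle-well nuclei count. Lung cancer cell lines in 1536-well plates were dosed by pin tool a day after seeding, alone with one drug or with a fixed anchor-drug dose plus five library-drug doses (not always all listed) in √10 steps, and nuclei were counted after 5 days.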

Compound in the experiment “Ispinesib + OSI-027”: Cc1ccc(C(=O)N(CCCN)[C@@H](c2nc3cc(Cl)ccc3c(=O)n2Cc2ccccc2)C(C)C)cc1 [Ispinesib] + COc1cccc2cc(-c3nc([C@H]4CC[C@H](C(=O)O)CC4)n4ncnc(N)c34)[nH]c12 [OSI-027] (partner 0.5 µM)
A digest of the protocol:
as §1

Compound in the experiment “Ispinesib + Crizotinib”: Cc1ccc(C(=O)N(CCCN)[C@@H](c2nc3cc(Cl)ccc3c(=O)n2Cc2ccccc2)C(C)C)cc1 [Ispinesib] + C[C@@H](Oc1cc(-c2cnn(C3CCNCC3)c2)cnc1N)c1c(Cl)ccc(F)c1Cl [Crizotinib] (partner 1 µM)
A digest of the protocol: as §1

Compound in the experiment “Linsitinib + Decitabine”: C[C@]1(O)C[C@@H](c2nc(-c3ccc4ccc(-c5ccccc5)nc4c3)c3c(N)nccn32)C1 [Linsitinib] + Nc1ncn([C@H]2C[C@H](O)[C@@H](CO)O2)c(=O)n1 [Decitabine] (partner 2 µM)
A digest of the protocol:
as §1

Regarding UMC-11, the relative viability with Ispinesib + Navitoclax (first compound 0.001 µM) stood at 0.314; with Ispinesib + Navitoclax (first compound 0.003162 µM) it was 0.371; in the experiment with Ispinesib + Navitoclax (first compound 0.01 µM) it was 0.267; with Ispinesib + Navitoclax (first compound 0.03162 µM), 0.176; in the experiment with Ispinesib + Navitoclax (first compound 0.1 µM), 0.216; with Ispinesib + OSI-027 (first compound 0.001 µM), 0.484. The relative viability was found to be 0.429 with Ispinesib + OSI-027 (first compound 0.003162 µM); 0.445 with Ispinesib + OSI-027 (first compound 0.01 µM); 0.219 with Ispinesib + OSI-027 (first compound 0.03162 µM); 0.239 in the experiment with Ispinesib + OSI-027 (first compound 0.1 µM); 0.547 with Ispinesib + Crizotinib (first compound 0.001 µM); 0.636 with Ispinesib + Crizotinib (first compound 0.003162 µM). In addition, the relative viability with Ispinesib + Crizotinib (first compound 0.01 µM) is 0.394; with Ispinesib + Crizotinib (first compound 0.03162 µM), 0.192; in the experiment with Ispinesib + Crizotinib (first compound 0.1 µM), 0.376; with Linsitinib + Decitabine (first compound 0.01 µM), 0.627; with Linsitinib + Decitabine (first compound 0.03162 µM), 0.458; with Linsitinib + Decitabine (first compound 0.1 µM), 0.642. Moreover, the relative viability with Linsitinib + Decitabine (first compound 0.3162 µM) was found to be 0.423; with Linsitinib + Decitabine (first compound 1 µM), 0.527.
